Source: patent US20230212584A1, “MEDICAMENT USED FOR TREATING CHOLANGIOCARCINOMA WITH KRAS MUTATIONS” (GENOMICARE BIOTECHNOLOGY (SHANGHAI) CO., LTD., priority 2022, published 2023)

Assays:
[1] = test system: KRAS-mutated cholangiocarcinoma cell line OZ; assay: Cell viability assay, CellTiter-Glo (CTG) method, OZ; type: cell-based; conditions: 1 μM Fulvestrant; 1 nM Estradiol; 168 hours; inhibition rate increased with concentration; FIG. 4
Protocol: (§1) Fulvestrant was assayed for its anti-cholangiocarcinoma activity using the CTG method. The cell lines used were KRAS-mutated cholangiocarcinoma cell lines HUCCT1 and OZ, as well as KRAS wild-type cholangiocarcinoma cell line HCCC-9810. The efficacy of treatment by a medicament for cholangiocarcinoma was determined by comparing the difference in growth between KRAS-mutant-type group and wild-type group after treatment by a medicament. The specific steps were as follows:
(§2) 1) Different experimental cell lines were sub-cultured into 96-well plates. 100 μL of PBS was added around the 96-well plates as a blank, where the cholangiocarcinoma cell lines used were HUCCT, OZ and HCCC-9810. The cells in the 96-well plates were cultured overnight at 37° C., 5% CO2 and 95% humidity.
(§3) 2) The cell culture medium in the 96-well plate was discarded and 100 μL of phenol red-free RPMI1640 culture medium containing 5% Charcoal Stripped FBS was added.
(§4) 3) The cells in the 96-well plate with the changed medium were cultured at 37° C., 5% CO2, 95% humidity for another 48 hours. […]
(§5) 9) On the 11th day of the culture, CellTiter-Glo® reagent and medicament-treated cell culture plates were placed at room temperature for 30 minutes to equilibrate. […] Chemiluminescence values were read with EnVision®. […]

[2] = test system: KRAS-mutated cholangiocarcinoma cell line HUCCT1; assay: Cell viability assay, CellTiter-Glo (CTG) method, HUCCT1; type: cell-based; conditions: concentration higher than 2.5 μM; 1 nM Estradiol; 168 hours; lower inhibition rate than OZ; FIG. 4
Protocol: as §1, §2, §3, §4, §5

C[C@]12CC[C@@H]3c4ccc(O)cc4C[C@@H](CCCCCCCCC[S+]([O-])CCCC(F)(F)C(F)(F)F)[C@H]3[C@@H]1CC[C@@H]2O (some centres unmarked) [Fulvestrant]
growth inhibition of OZ [1]: significant growth inhibition
growth inhibition of HuCCT1 [2]: significantly inhibited
